Results: the NIST ThermoML archive (doi:10.1016/j.jct.2007.05.015)
± gives the expanded uncertainty stated by the source.

What was measured:
[1] = 298.15 K; 101 kPa; Liquid
[2] = xn = mol fraction of the nth substance listed; details: 298.15 K, 101 kPa, Liquid

## CN1CCCC1=O [N-methylpyrrolidone]
[1]
  mass density: 1028.23 ± 0.88 kg/m3
  speed of sound: 1531.5 ± 6.1 m/s

## CC(=O)N(C)C [N,N-dimethylethanamide]
[1]
  mass density: 936.34 ± 1.8 kg/m3
  speed of sound: 1455.9 ± 5.8 m/s

## NC=O [formamide]
[1]
  mass density: 1128.78 ± 1.6 kg/m3
  speed of sound: 1597.3 ± 3.6 m/s

## CN(C)C=O [dimethylformamide]
[1]
  mass density: 943.94 ± 0.85 kg/m3
  speed of sound: 1457.5 ± 5.8 m/s

## CNC=O [N-methylformamide]
[1]
  mass density: 999.06 ± 0.7 kg/m3
  speed of sound: 1431.9 ± 3.4 m/s

## O=C1CCCN1 [2-pyrrolidinone]
[1]
  mass density: 1107.52 ± 1.4 kg/m3
  speed of sound: 1633.7 ± 6.4 m/s

## CN(C)C=O [dimethylformamide] + O
[2]; x1 = 0.01233
  mass density: 996.44 ± 0.52 kg/m3
  speed of sound: 1526.3 ± 6 m/s
[2]; x1 = 0.0266
  mass density: 996.21 ± 0.52 kg/m3
  speed of sound: 1555.7 ± 6.1 m/s
[2]; x1 = 0.0276
  mass density: 996.23 ± 0.52 kg/m3
  speed of sound: 1554.2 ± 6.1 m/s
[2]; x1 = 0.04154
  mass density: 996.18 ± 0.52 kg/m3
  speed of sound: 1582.3 ± 6.1 m/s
[2]; x1 = 0.05803
  mass density: 996.38 ± 0.52 kg/m3
  speed of sound: 1607.4 ± 6.2 m/s
[2]; x1 = 0.07593
  mass density: 996.62 ± 0.52 kg/m3
  speed of sound: 1628.8 ± 6.3 m/s
[2]; x1 = 0.09542
  mass density: 996.84 ± 0.52 kg/m3
  speed of sound: 1647.5 ± 6.3 m/s
[2]; x1 = 0.1173
  mass density: 997.02 ± 0.52 kg/m3
  speed of sound: 1659 ± 6.4 m/s
[2]; x1 = 0.1412
  mass density: 996.93 ± 0.52 kg/m3
  speed of sound: 1675.5 ± 6.4 m/s
[2]; x1 = 0.1677
  mass density: 996.02 ± 0.52 kg/m3
  speed of sound: 1684.6 ± 6.5 m/s
[2]; x1 = 0.1975
  mass density: 995.1 ± 0.53 kg/m3
  speed of sound: 1688.2 ± 6.5 m/s
[2]; x1 = 0.23
  mass density: 993.87 ± 0.54 kg/m3
  speed of sound: 1687.8 ± 6.5 m/s
[2]; x1 = 0.2866
  mass density: 990.18 ± 0.56 kg/m3
  speed of sound: 1676.6 ± 6.4 m/s
[2]; x1 = 0.3139
  mass density: 989.17 ± 0.57 kg/m3
  speed of sound: 1669.3 ± 6.4 m/s
[2]; x1 = 0.3771
  mass density: 984.28 ± 0.6 kg/m3
  speed of sound: 1647.7 ± 6.3 m/s
[2]; x1 = 0.4247
  mass density: 981.19 ± 0.62 kg/m3
  speed of sound: 1629.1 ± 6.3 m/s
[2]; x1 = 0.4494
  mass density: 979.47 ± 0.63 kg/m3
  speed of sound: 1620.3 ± 6.3 m/s
[2]; x1 = 0.4755
  mass density: 977.79 ± 0.64 kg/m3
  speed of sound: 1610.1 ± 6.2 m/s
[2]; x1 = 0.4955
  mass density: 976.4 ± 0.65 kg/m3
  speed of sound: 1599.5 ± 6.2 m/s
[2]; x1 = 0.5203
  mass density: 974.98 ± 0.66 kg/m3
  speed of sound: 1592 ± 6.2 m/s
[2]; x1 = 0.5336
  mass density: 974.17 ± 0.66 kg/m3
  speed of sound: 1585.7 ± 6.2 m/s
[2]; x1 = 0.555
  mass density: 972.69 ± 0.67 kg/m3
  speed of sound: 1572.1 ± 6.1 m/s
[2]; x1 = 0.5806
  mass density: 970.92 ± 0.68 kg/m3
  speed of sound: 1565.8 ± 6.1 m/s
[2]; x1 = 0.6169
  mass density: 968.9 ± 0.7 kg/m3
  speed of sound: 1559 ± 6.1 m/s
[2]; x1 = 0.637
  mass density: 967.32 ± 0.71 kg/m3
  speed of sound: 1550.5 ± 6 m/s
[2]; x1 = 0.6551
  mass density: 965.83 ± 0.72 kg/m3
  speed of sound: 1545.2 ± 6 m/s
[2]; x1 = 0.6931
  mass density: 963.35 ± 0.73 kg/m3
  speed of sound: 1538.2 ± 6 m/s
[2]; x1 = 0.7172
  mass density: 961.78 ± 0.74 kg/m3
  speed of sound: 1527.7 ± 6 m/s
[2]; x1 = 0.7373
  mass density: 960.6 ± 0.75 kg/m3
  speed of sound: 1519.7 ± 6 m/s
[2]; x1 = 0.753
  mass density: 959.56 ± 0.75 kg/m3
  speed of sound: 1514.8 ± 5.9 m/s
[2]; x1 = 0.7666
  mass density: 958.73 ± 0.76 kg/m3
  speed of sound: 1512.3 ± 5.9 m/s
[2]; x1 = 0.8037
  mass density: 956.19 ± 0.78 kg/m3
  speed of sound: 1504.3 ± 5.9 m/s
[2]; x1 = 0.8126
  mass density: 955.54 ± 0.78 kg/m3
  speed of sound: 1501.2 ± 5.9 m/s
[2]; x1 = 0.8469
  mass density: 953.57 ± 0.79 kg/m3
  speed of sound: 1493 ± 5.9 m/s
[2]; x1 = 0.8694
  mass density: 952.12 ± 0.8 kg/m3
  speed of sound: 1491.4 ± 5.9 m/s
[2]; x1 = 0.8911
  mass density: 950.68 ± 0.81 kg/m3
  speed of sound: 1488.4 ± 5.8 m/s
[2]; x1 = 0.925
  mass density: 948.01 ± 0.83 kg/m3
  speed of sound: 1476.6 ± 5.8 m/s
[2]; x1 = 0.9661
  mass density: 946.28 ± 0.84 kg/m3
  speed of sound: 1469.1 ± 5.8 m/s
[2]; x1 = 1
  mass density: 943.94 ± 0.85 kg/m3
  speed of sound: 1457.5 ± 5.8 m/s

## CNC=O [N-methylformamide] + O
[2]; x1 = 0.01572
  mass density: 999.1 ± 0.5 kg/m3
  speed of sound: 1518.7 ± 3.4 m/s
[2]; x1 = 0.03276
  mass density: 1001.38 ± 0.51 kg/m3
  speed of sound: 1538.8 ± 3.4 m/s
[2]; x1 = 0.05095
  mass density: 1003.6 ± 0.52 kg/m3
  speed of sound: 1557.2 ± 3.4 m/s
[2]; x1 = 0.07104
  mass density: 1005.91 ± 0.54 kg/m3
  speed of sound: 1574.1 ± 3.4 m/s
[2]; x1 = 0.09226
  mass density: 1007.87 ± 0.55 kg/m3
  speed of sound: 1582.7 ± 3.5 m/s
[2]; x1 = 0.1156
  mass density: 1010.1 ± 0.57 kg/m3
  speed of sound: 1591.3 ± 3.5 m/s
[2]; x1 = 0.141
  mass density: 1011.91 ± 0.58 kg/m3
  speed of sound: 1601.6 ± 3.5 m/s
[2]; x1 = 0.1714
  mass density: 1013.58 ± 0.59 kg/m3
  speed of sound: 1606.1 ± 3.5 m/s
[2]; x1 = 0.2005
  mass density: 1014.89 ± 0.61 kg/m3
  speed of sound: 1606.2 ± 3.5 m/s
[2]; x1 = 0.2339
  mass density: 1015.73 ± 0.61 kg/m3
  speed of sound: 1603.4 ± 3.5 m/s
[2]; x1 = 0.2714
  mass density: 1016.31 ± 0.62 kg/m3
  speed of sound: 1598.8 ± 3.5 m/s
[2]; x1 = 0.3047
  mass density: 1016.34 ± 0.63 kg/m3
  speed of sound: 1594 ± 3.5 m/s
[2]; x1 = 0.3185
  mass density: 1016.28 ± 0.63 kg/m3
  speed of sound: 1589.3 ± 3.5 m/s
[2]; x1 = 0.3367
  mass density: 1016.3 ± 0.63 kg/m3
  speed of sound: 1583.7 ± 3.5 m/s
[2]; x1 = 0.3615
  mass density: 1015.86 ± 0.63 kg/m3
  speed of sound: 1573 ± 3.5 m/s
[2]; x1 = 0.3853
  mass density: 1015.45 ± 0.63 kg/m3
  speed of sound: 1560.7 ± 3.5 m/s
[2]; x1 = 0.4166
  mass density: 1014.47 ± 0.63 kg/m3
  speed of sound: 1551.9 ± 3.5 m/s
[2]; x1 = 0.4456
  mass density: 1013.64 ± 0.63 kg/m3
  speed of sound: 1542.9 ± 3.4 m/s
[2]; x1 = 0.4785
  mass density: 1012.83 ± 0.63 kg/m3
  speed of sound: 1534.2 ± 3.4 m/s
[2]; x1 = 0.5109
  mass density: 1011.92 ± 0.63 kg/m3
  speed of sound: 1526.4 ± 3.4 m/s
[2]; x1 = 0.5497
  mass density: 1010.88 ± 0.64 kg/m3
  speed of sound: 1514.7 ± 3.4 m/s
[2]; x1 = 0.5805
  mass density: 1010.04 ± 0.64 kg/m3
  speed of sound: 1507.5 ± 3.4 m/s
[2]; x1 = 0.5913
  mass density: 1009.49 ± 0.64 kg/m3
  speed of sound: 1502.6 ± 3.4 m/s
[2]; x1 = 0.6164
  mass density: 1008.9 ± 0.64 kg/m3
  speed of sound: 1497.2 ± 3.4 m/s
[2]; x1 = 0.6335
  mass density: 1008.22 ± 0.64 kg/m3
  speed of sound: 1493.1 ± 3.4 m/s
[2]; x1 = 0.681
  mass density: 1006.72 ± 0.64 kg/m3
  speed of sound: 1480.6 ± 3.4 m/s
[2]; x1 = 0.7323
  mass density: 1005.35 ± 0.64 kg/m3
  speed of sound: 1469 ± 3.4 m/s
[2]; x1 = 0.779
  mass density: 1004.51 ± 0.65 kg/m3
  speed of sound: 1462.9 ± 3.4 m/s
[2]; x1 = 0.8279
  mass density: 1003.34 ± 0.66 kg/m3
  speed of sound: 1454.5 ± 3.4 m/s
[2]; x1 = 0.8535
  mass density: 1002.54 ± 0.66 kg/m3
  speed of sound: 1449.5 ± 3.4 m/s
[2]; x1 = 0.8763
  mass density: 1001.72 ± 0.66 kg/m3
  speed of sound: 1446.5 ± 3.4 m/s
[2]; x1 = 0.917
  mass density: 1001.03 ± 0.67 kg/m3
  speed of sound: 1441.1 ± 3.4 m/s
[2]; x1 = 0.9285
  mass density: 1000.72 ± 0.67 kg/m3
  speed of sound: 1440.2 ± 3.4 m/s
[2]; x1 = 1
  mass density: 999.06 ± 0.7 kg/m3
  speed of sound: 1431.9 ± 3.4 m/s
